Results taken from PMC7387440, “EGCG impedes human Tau aggregation and interacts with Tau” (Scientific Reports, 2020).

Molecular target: T1, full-length Tau (human Tau40wt) (Homo sapiens, UniProt P10636)
T1 construct: gene MAPT; full-length recombinant Tau (Tau40wt, 441 residues)
Assay: isothermal titration calorimetry ([…] Tau titrated with […] EGCG)
Type: binding

T1 sequence (P10636 1-441 isoform P10636-8): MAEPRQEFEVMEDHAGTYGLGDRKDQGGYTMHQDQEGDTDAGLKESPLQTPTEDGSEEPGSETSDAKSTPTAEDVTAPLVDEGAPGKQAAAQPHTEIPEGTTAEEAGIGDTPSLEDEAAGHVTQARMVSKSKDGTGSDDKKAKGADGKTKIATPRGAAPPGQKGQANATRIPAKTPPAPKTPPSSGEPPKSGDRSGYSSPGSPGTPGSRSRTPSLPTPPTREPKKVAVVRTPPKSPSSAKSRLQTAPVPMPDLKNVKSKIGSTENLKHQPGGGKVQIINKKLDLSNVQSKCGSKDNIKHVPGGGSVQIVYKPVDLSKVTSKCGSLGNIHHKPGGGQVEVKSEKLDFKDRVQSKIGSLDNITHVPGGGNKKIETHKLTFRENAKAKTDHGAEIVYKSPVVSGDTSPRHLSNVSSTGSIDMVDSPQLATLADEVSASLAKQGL

Structure (SMILES): O=C(O[C@@H]1Cc2c(O)cc(O)cc2O[C@@H]1c1cc(O)c(O)c(O)c1)c1cc(O)c(O)c(O)c1 [EGCG]
- Kd: 74 nM
